Reference: paper PMC10985088, “Synthesis and biological evaluation of echinomycin analogues as potential colon cancer agent” (Scientific Reports, 2024)
“And” between values parts separate entries of the source, which are not always exact repeats. Identical values can stand only once.

Key:
SW620 cells = assay: WST-8 cytotoxicity assay, SW620; conditions: for IC50: read-out: IC50 SW620, human colon cancer cell, 72 h, mean ± SE (n = 3)
Description: (§1) With a range of chromophore analogues in hand, their toxicity to SW620 cells was investigated by WST assays.
(§2) Basically, the evaluation was performed using methods previously reported by our group[20],[23]. Cytotoxic activities of compounds against MIA PaCa-2 (American Type Culture Collection), SW620 (European Collection of Authenticated Cell Cultures) were measured by WST-8 assay according to manufacturer’s protocol. Briefly, cells (1 × 10^4 cells/well) in a 96-well plate were cultured in medium (for MIA PaCa-2, D-MEM (Wako, Japan) containing 10% fetal bovine serum (Funakoshi, Japan), 100 units/mL penicillin G and 100 µg/mL streptomycin (Wako, Japan), for SW620, RPMI-1640 (Wako, Japan) containing 10% fetal bovine serum, 100 units/mL penicillin G and 100 µg/mL streptomycin) were cultured at 37 °C for 24 h under 5% CO2 atmosphere. Then, cells were treated with test compounds (final DMSO concentration was 1%) at 37 °C for 72 h under 5% CO2 atmosphere. Then, cells were treated with a solution of Cell Counting Kit-8® (Dojindo, Japan) for 3 h. After that, cell viabilities were determined based on the measurement of absorption at 450 nm of the wells by using TECAN Infinite® M200 microplate reader. The results were expressed as a percentage of the negative control (cells treated with DMSO only), and that value was fixed at 100%.

MIA PaCa-2 cells = conditions: read-out: IC50 MIA PaCa-2; human pancreatic carcinoma cell, 72 h, mean ± SE (n = 3)
Description: as §1, §2

| SMILES | IC50 (SW620 cells) | IC50 (MIA PaCa-2 cells) [nM] | cytotoxicity to SW620 cells (in words) (SW620 cells) |
| --- | --- | --- | --- |
| CC(C)[C@H]1C(=O)OC[C@@H](NC(=O)c2cnc3ccccc3n2)C(=O)N[C@@H](C)C(=O)N(C)[C@H]2CSC[C@@H](C(=O)N1C)N(C)C(=O)[C@H](C)NC(=O)[C@H](NC(=O)c1cnc3ccccc3n1)COC(=O)[C@H](C(C)C)N(C)C2=O [Compound 2] | 26 nM and 25.6 nM | 8.1 ± 1 |  |
| CC(C)[C@H]1C(=O)OC[C@@H](NC(=O)c2ccc3ccccc3n2)C(=O)N[C@@H](C)C(=O)N(C)[C@H]2CSC[C@@H](C(=O)N1C)N(C)C(=O)[C@H](C)NC(=O)[C@H](NC(=O)c1ccc3ccccc3n1)COC(=O)[C@H](C(C)C)N(C)C2=O [Compound 4] | 20.5 ± 3.1 nM | 5.8 ± 0.9 | slightly better cytotoxicity than 2 |
| CC(C)[C@H]1C(=O)OC[C@@H](NC(=O)c2cnc3ccccc3c2)C(=O)N[C@@H](C)C(=O)N(C)[C@H]2CSC[C@@H](C(=O)N1C)N(C)C(=O)[C@H](C)NC(=O)[C@H](NC(=O)c1cnc3ccccc3c1)COC(=O)[C@H](C(C)C)N(C)C2=O [Compound 5, {N-(Quinoline-3-carbonyl)-D-Ser-L-Ala-N-Boc-N-Me-L-Cys-N-Me-L-Val}2 sulfide] | 1210 ± 35 nM | 399 ± 76 |  |
| CC(C)[C@H]1C(=O)OC[C@@H](NC(=O)c2ccc3ncccc3c2)C(=O)N[C@@H](C)C(=O)N(C)[C@H]2CSC[C@@H](C(=O)N1C)N(C)C(=O)[C@H](C)NC(=O)[C@H](NC(=O)c1ccc3ncccc3c1)COC(=O)[C@H](C(C)C)N(C)C2=O [Compound 6, {N-(Quinoline-6-carbonyl)-D-Ser-L-Ala-N-Boc-N-Me-L-Cys-N-Me-L-Val}2 sulfide] | 1190 ± 187 nM | 327 ± 66 |  |
| CC(C)[C@H]1C(=O)OC[C@@H](NC(=O)c2ccc3ccccc3c2)C(=O)N[C@@H](C)C(=O)N(C)[C@H]2CSC[C@@H](C(=O)N1C)N(C)C(=O)[C@H](C)NC(=O)[C@H](NC(=O)c1ccc3ccccc3c1)COC(=O)[C@H](C(C)C)N(C)C2=O [Compound 7, {N-(Naphthalene-2-carbonyl)-D-Ser-L-Ala-N-Boc-N-Me-L-Cys-N-Me-L-Val}2 sulfide] | > 10000 nM | > 10000 | completely diminished activity |
| CC(C)[C@H]1C(=O)OC[C@@H](NC(=O)c2cc3ccccc3[nH]2)C(=O)N[C@@H](C)C(=O)N(C)[C@H]2CSC[C@@H](C(=O)N1C)N(C)C(=O)[C@H](C)NC(=O)[C@H](NC(=O)c1cc3ccccc3[nH]1)COC(=O)[C@H](C(C)C)N(C)C2=O [Compound 8, {N-(Indol-2-carbonyl)-D-Ser-L-Ala-N-Boc-N-Me-L-Cys-N-Me-L-Val}2 sulfide] | > 10000 nM | > 10000 |  |
| CC(C)[C@H]1C(=O)OC[C@@H](NC(=O)c2c[nH]c3ccccc23)C(=O)N[C@@H](C)C(=O)N(C)[C@H]2CSC[C@@H](C(=O)N1C)N(C)C(=O)[C@H](C)NC(=O)[C@H](NC(=O)c1c[nH]c3ccccc13)COC(=O)[C@H](C(C)C)N(C)C2=O [Compound 9, {N-(Indol-3-carbonyl)-D-Ser-L-Ala-N-Boc-N-Me-L-Cys-N-Me-L-Val}2 sulfide] | > 10000 nM | > 10000 |  |
| CC(C)[C@H]1C(=O)OC[C@@H](NC(=O)c2ccc3[nH]ccc3c2)C(=O)N[C@@H](C)C(=O)N(C)[C@H]2CSC[C@@H](C(=O)N1C)N(C)C(=O)[C@H](C)NC(=O)[C@H](NC(=O)c1ccc3[nH]ccc3c1)COC(=O)[C@H](C(C)C)N(C)C2=O [Compound 10, {N-(Indol-5-carbonyl)-D-Ser-L-Ala-N-Boc-N-Me-L-Cys-N-Me-L-Val}2 sulfide] | > 10000 nM | > 10000 |  |
| CC(C)[C@H]1C(=O)OC[C@@H](NC(=O)c2cnccn2)C(=O)N[C@@H](C)C(=O)N(C)[C@H]2CSC[C@@H](C(=O)N1C)N(C)C(=O)[C@H](C)NC(=O)[C@H](NC(=O)c1cnccn1)COC(=O)[C@H](C(C)C)N(C)C2=O [Compound 20, {N-(Pyradine-2carbonyl)-D-Ser-L-Ala-N-Boc-N-Me-L-Cys-N-Me-L-Val}2 sulfide] |  |  | lost their cytotoxicity |
